# Assay results reported in US9969752B2, “Inhibitors of HIF prolyl hydroxylase” (MERCK SHARP & DOHME CORP., priority 2014, dated 2018).
# Target: T1, Human HIF-PHD2 (Homo sapiens, UniProt Q9GZT9)
# T1 construct: FLAG-tagged full length PHD2 expressed in and purified from baculovirus-infected Sf9 cells; FLAG; made in house; host or cells: baculovirus-infected Sf9 cells
# Test: Inhibition of the hydroxylation of a HIF peptide by PHD2 (time resolved fluorescence, 384-well)
# Assay type: biochemical
# Conditions: FLAG-tagged full length PHD2; 0.2 μM 2-oxoglutarate, 0.5 μM HIF-1α peptide; 45 minutes at room temperature; read-out: Human HIF-PHD2 IC50
# Method: To each well of a 384-well plate, 1 μL of test compounds in DMSO (final concentration ranging from 0.3 nM to 10 uM) were added into 20 μl of assay buffer (50 mM Tris pH 7.4/0.01% Tween-20/0.1 mg/ml bovine serum albumin/10 μM ferrous sulfate/1 mM sodium ascorbate/20 μg/ml catalase) containing 0.15 μg/ml FLAG-tagged full length PHD2 expressed in and purified from baculovirus-infected Sf9 cells. After a 5 min preincubation at room temperature, the enzymatic reactions were initiated by the addition of 4 μL of substrates {final concentrations of 0.2 μM 2-oxoglutarate and 0.5 μM HIF-1α peptide biotinyl-[…] […] After incubation for 45 minutes at room temperature, the reactions were terminated by the addition of a 25 μL quench/detection mix to a final concentration of 1 mM ortho-phenanthroline, 0.1 mM EDTA, 0.5 nM anti-(His)6 LANCE reagent (Perkin-Elmer Life Sciences), 100 nM AF647-labeled streptavidin (Invitrogen), and 2 μg/ml (His)6-VHL complex {S. Tan Protein Expr. Purif.
# T1 sequence (Q9GZT9 whole entry): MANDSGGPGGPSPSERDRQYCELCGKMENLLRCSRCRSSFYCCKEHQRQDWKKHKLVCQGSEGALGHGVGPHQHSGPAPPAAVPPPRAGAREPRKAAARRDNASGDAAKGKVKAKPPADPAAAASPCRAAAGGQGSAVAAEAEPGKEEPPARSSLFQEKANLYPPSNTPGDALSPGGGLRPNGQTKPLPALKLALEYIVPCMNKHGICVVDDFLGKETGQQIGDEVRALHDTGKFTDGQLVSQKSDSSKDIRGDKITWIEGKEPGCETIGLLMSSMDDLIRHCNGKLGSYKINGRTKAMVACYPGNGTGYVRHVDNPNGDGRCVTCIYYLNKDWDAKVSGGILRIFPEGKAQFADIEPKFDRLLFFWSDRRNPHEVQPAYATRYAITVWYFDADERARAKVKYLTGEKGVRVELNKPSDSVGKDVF
row,IC50 [nM],Compound
1,15.8,"O=C(O)CNC(=O)c1c(O)c2cccc3c2n(c1=O)C(c1ccc(C(F)(F)F)cc1)CO3 (racemic) [Example 1, 2-(7-Hydroxy-5-oxo-3-(4-(trifluoromethyl)phenyl)-3,5-dihydro-2H-[1,4]oxazino[2,3,4-ij]quinoline-6-carboxamido)acetic acid]"
2,7.3,"O=C(O)CNC(=O)c1c(O)c2cccc3c2n(c1=O)CC(c1cncs1)C3 (racemic) [Example 50, 2-(1-Hydroxy-3-oxo-6-(thiazol-5-yl)-3,5,6,7-tetrahydropyrido[3,2,1-ij]quinoline-2-carboxamido)acetic acid]"
3,74,"O=C(O)CNC(=O)c1c(O)c2cccc3c2n(c1=O)C(c1ccccc1)C3 (racemic) [Example 129, 2-(6-Hydroxy-4-oxo-2-phenyl-2,4-dihydro-1H-pyrrolo[3,2,1-ij]quinoline-5-carboxamido)acetic acid]"
4,15,"O=C(O)CNC(=O)c1c(O)c2cccc3c2n(c1=O)C(Cc1ccc(Cl)cc1)CC3 (racemic) [Example 131, 2-(5-(4-Chlorobenzyl)-1-hydroxy-3-oxo-3,5,6,7-tetrahydropyrido[3,2,1-ij]quinoline-2-carboxamido)acetic acid]"
5,17,"O=C(O)CNC(=O)c1c(O)c2cccc3c2n(c1=O)C(c1ccc(Br)cc1)CO3 (racemic) [Example 133, 2-(3-(4-Bromophenyl)-7-hydroxy-5-oxo-3,5-dihydro-2H-[1,4]oxazino[2,3,4-ij]quinoline-6-carboxamido)acetic acid]"
6,33.7,"O=C(O)CNC(=O)c1c(O)c2cccc3c2n(c1=O)C(c1ccc(C(F)(F)F)cc1)CO3 (single isomer, unassigned) [Example 1a, 2-(7-Hydroxy-5-oxo-3-(4-(trifluoromethyl)phenyl)-3,5-dihydro-2H-[1,4]oxazino[2,3,4-ij]quinoline-6-carboxamido)acetic acid]"
7,13.1,"O=C(O)CNC(=O)c1c(O)c2cccc3c2n(c1=O)C(c1ccc(C(F)(F)F)cc1)CO3 (single isomer, unassigned) [Example 1b, 2-(7-Hydroxy-5-oxo-3-(4-(trifluoromethyl)phenyl)-3,5-dihydro-2H-[1,4]oxazino[2,3,4-ij]quinoline-6-carboxamido)acetic acid]"
8,0.9,"CS(=O)(=O)c1cc2c3c(c1)c(O)c(C(=O)NCC(=O)O)c(=O)n3CC(c1ccc(C(F)(F)F)cc1)O2 (single isomer, unassigned) [Example 17, 2-(7-Hydroxy-9-(methylsulfonyl)-5-oxo-2-(4-(trifluoromethyl)phenyl)-3,5-dihydro-2H-[1,4]oxazino[2,3,4-ij]quinoline-6-carboxamido)acetic acid]"
9,1.3,"CS(=O)(=O)c1cc2c3c(c1)c(O)c(C(=O)NCC(=O)O)c(=O)n3CC(c1ccc(C(F)(F)F)cc1)O2 (single isomer, unassigned) [Example 18, 2-(7-Hydroxy-9-(methylsulfonyl)-5-oxo-2-(4-(trifluoromethyl)phenyl)-3,5-dihydro-2H-[1,4]oxazino[2,3,4-ij]quinoline-6-carboxamido)acetic acid]"
10,0.5,"N#Cc1ccc2c(O)c(C(=O)NCC(=O)O)c(=O)n3c2c1OC(c1ccc(C(F)(F)F)cc1)C3 (single isomer, unassigned) [Example 20, 2-(10-Cyano-7-hydroxy-5-oxo-2-(4-(trifluoromethyl)phenyl)-3,5-dihydro-2H-[1,4]oxazino[2,3,4-ij]quinoline-6-carboxamido)acetic acid]"
11,0.6,"N#Cc1ccc2c(O)c(C(=O)NCC(=O)O)c(=O)n3c2c1OC(c1ccc(C(F)(F)F)cc1)C3 (single isomer, unassigned) [Example 21, 2-(10-Cyano-7-hydroxy-5-oxo-2-(4-(trifluoromethyl)phenyl)-3,5-dihydro-2H-[1,4]oxazino[2,3,4-ij]quinoline-6-carboxamido)acetic acid]"
12,1.6,"CS(=O)(=O)c1ccc2c(O)c(C(=O)NCC(=O)O)c(=O)n3c2c1OC(c1ccc(C(F)(F)F)cc1)C3 (single isomer, unassigned) [Example 23, 2-(7-Hydroxy-10-(methylsulfonyl)-5-oxo-2-(4-(trifluoromethyl)phenyl)-3,5-dihydro-2H-[1,4]oxazino[2,3,4-ij]quinoline-6-carboxamido)acetic acid]"
13,1.3,"CS(=O)(=O)c1ccc2c(O)c(C(=O)NCC(=O)O)c(=O)n3c2c1OC(c1ccc(C(F)(F)F)cc1)C3 (single isomer, unassigned) [Example 24, 2-(7-Hydroxy-10-(methylsulfonyl)-5-oxo-2-(4-(trifluoromethyl)phenyl)-3,5-dihydro-2H-[1,4]oxazino[2,3,4-ij]quinoline-6-carboxamido)acetic acid]"
14,6.7,"O=C(O)CNC(=O)c1c(O)c2cccc3c2n(c1=O)CC(c1cncs1)C3 (single isomer, unassigned) [Example 50a, 2-(1-Hydroxy-3-oxo-6-(thiazol-5-yl)-3,5,6,7-tetrahydropyrido[3,2,1-ij]quinoline-2-carboxamido)acetic acid]"
15,8.3,"O=C(O)CNC(=O)c1c(O)c2cccc3c2n(c1=O)CC(c1cncs1)C3 (single isomer, unassigned) [Example 50b, 2-(1-Hydroxy-3-oxo-6-(thiazol-5-yl)-3,5,6,7-tetrahydropyrido[3,2,1-ij]quinoline-2-carboxamido)acetic acid]"
16,4.9,"O=C(O)CNC(=O)c1c(O)c2c(F)ccc3c2n(c1=O)CC(c1ccc(C(F)(F)F)cc1)O3 (single isomer, unassigned) [Example 68, 2-(8-Fluoro-7-hydroxy-5-oxo-2-(4-(trifluoromethyl)phenyl)-3,5-dihydro-2H-[1,4]oxazino[2,3,4-ij]quinoline-6-carboxamido)acetic acid]"
17,1.8,"O=C(O)CNC(=O)c1c(O)c2c(Cl)ccc3c2n(c1=O)CC(c1ccc(C(F)(F)F)cc1)O3 (single isomer, unassigned) [Example 70, 2-(8-Chloro-7-hydroxy-5-oxo-2-(4-(trifluoromethyl)phenyl)-3,5-dihydro-2H-[1,4]oxazino[2,3,4-ij]quinoline-6-carboxamido)acetic acid]"
18,2.6,"O=C(O)CNC(=O)c1c(O)c2ccc(Cl)c3c2n(c1=O)CC(c1ccc(C(F)(F)F)cc1)O3 (single isomer, unassigned) [Example 72, 2-(10-Chloro-7-hydroxy-5-oxo-2-(4-(trifluoromethyl)phenyl)-3,5-dihydro-2H-[1,4]oxazino[2,3,4-ij]quinoline-6-carboxamido)acetic acid]"

# Same assay, conditions: FLAG-tagged full length PHD2; 0.2 μM 2-oxoglutarate, 0.5 μM HIF-1α peptide; 45 minutes at room temperature; read-out: MS m/z (M + 1)+ and human HIF-PHD2 IC50
row,IC50 [nM],Compound
1,3.3,"O=C(O)CNC(=O)c1c(O)c2c(F)ccc3c2n(c1=O)CC(c1ccc(C(F)(F)F)cc1)O3 (single isomer, unassigned) [Example 69, 2-(8-fluoro-7-hydroxy-5-oxo-2-(4-(trifluoromethyl)phenyl)-3,5-dihydro-2H-[1,4]oxazino[2,3,4-ij]quinoline-6-carboxamido)acetic acid]"
2,5.1,"O=C(O)CNC(=O)c1c(O)c2c(Cl)ccc3c2n(c1=O)CC(c1ccc(C(F)(F)F)cc1)O3 (single isomer, unassigned) [Example 71, 2-(8-chloro-7-hydroxy-5-oxo-2-(4-(trifluoromethyl)phenyl)-3,5-dihydro-2H-[1,4]oxazino[2,3,4-ij]quinoline-6-carboxamido)acetic acid]"
